According to US11932593B1, “8-(3-bromobenzylideneamino)naphthalene-1,3-disulfonic acid as an antioxidant compound” (KING FAISAL UNIVERSITY, priority 2023, dated 2024):

Assay: DPPH radical scavenging antioxidant test
Assay type: biochemical
Conditions: 517 nm; for Inhibition (radical scavenging inhibition): compound 3 μM in ethanol, 0.2 mL DPPH (0.75 mM), 30 min incubation in the dark
Description: The antioxidant properties of the 8-(3-bromobenzylideneamino)naphthalene-1,3-disulfonic acid were studied by adding 0.2 mL DPPH (0.75 mM)) to compound 8-(3-bromobenzylideneamino)naphthalene-1,3-disulfonic acid (III) (3 μM) in ethanol. After 30 min of incubation in the dark, the absorbance was read against a blank at 517 nm. Ascorbic acid (vitamin C) was used as standard antioxidants (positive control). A blank sample was prepared by 0.2 ml of DPPH in 3 ml ethanol. A negative control sample was run using ethanol instead of the sample. The radical scavenging inhibition was calculated using the following equation: […]

Compound: O=S(=O)(O)c1cc(S(=O)(=O)O)c2c(/N=C/c3cccc(Br)c3)cccc2c1 [Product III, 8-(3-bromobenzylideneamino)naphthalene-1,3-disulfonic acid]
- antioxidant potential in DPPH test compared to vitamin C (in words) (DPPH in vitro test, vitamin C as positive control): high potential as an antioxidant compared to vitamin C
- Inhibition (radical scavenging inhibition): 50%

Compound: O=C1O[C@H]([C@@H](O)CO)C(O)=C1O [vit c, Ascorbic acid, reference compound]
- Inhibition (radical scavenging inhibition): 74%
